Test results published in US9352013B2, “Uses of bremelanotide in therapy for female sexual dysfunction” (Palatin Technologies, Inc., priority 2012, dated 2016).
Marks after values point to notes of the source that are not given here.

Test: Example 1: ambulatory blood pressure monitoring
Format: in vivo, human
Details: for Pulse: treatment group difference (from placebo) in mean change from single-blind placebo: in bpm (unit assumed); for DBP: treatment group difference (from placebo) in mean change from single-blind placebo / SBP: treatment group difference (from placebo) in mean change from single-blind placebo: in mmHg (unit assumed); for HR-BP Product: treatment group difference (from placebo) in mean change from single-blind placebo: in mmHg·bpm (unit assumed)
Experimental: Ambulatory blood pressure monitoring was conducted following both placebo and randomized treatment group in-clinic administrations. Three periods of ambulatory blood pressure monitoring were included, the first period was from before to 24 hours after a single, in-clinic dose of placebo (to establish a baseline); the second and third periods occurred from before to 24 hours after each of 2 single, in-clinic doses of double-blind treatment, administered within 14 days of each other. Blood samples for pharmacokinetic analysis were collected before and at 0.5, 1.0, and 2.0 hours after each in-clinic bremelanotide single-dose treatment (double-blind only), to permit analysis of concentration-response relationships.
Mean changes in blood pressure were characterized in all subjects based on sequential supervised dosing of single-blind subcutaneous placebo and two doses of randomized study drug. The primary analysis for mean changes was the difference between treatment groups in the change from single-blind placebo to randomized drug (Visit 2 vs. Visits 5/7). There were between 86 to 100 subjects in each dose group.
Although there were an increased number of outliers for maximal changes from baseline in systolic blood pressure in drug-treated patients, the duration of these events was quite limited. The interrogation interval during ambulatory blood pressure monitoring assessments of 15 minutes allowed definition of the maximal duration of such excursions. […] The clinical significance of such changes, if any, is small.

[1] = 0.75 mg SC, interval 0-24 h, V5
[2] = 0.75 mg SC, interval 0-24 h, V7
[3] = 0.75 mg SC, interval 8-24 h, V5
[4] = 0.75 mg SC, interval 8-24 h, V7
[5] = 1.25 mg SC, interval 0-24 h, V5
[6] = 1.25 mg SC, interval 0-24 h, V7

CCCC[C@H](NC(C)=O)C(=O)N[C@H]1CC(=O)NCCCC[C@@H](C(=O)O)NC(=O)[C@H](Cc2c[nH]c3ccccc23)NC(=O)[C@H](CCCNC(=N)N)NC(=O)[C@@H](Cc2ccccc2)NC(=O)[C@H](Cc2c[nH]cn2)NC1=O [bremelanotide, Ac-Nle-cyclo(-Asp-His-D-Phe-Arg-Trp-Lys)-OH]
Systolic blood pressure shifts: ΔSBP >10 mmHg, Duration >30 minutes (0.75 mg SC): 1 | Systolic blood pressure shifts: ΔSBP >15 mmHg, Duration >30 minutes (0.75 mg SC): 0 | Pulse: treatment group difference (from placebo) in mean change from single-blind placebo (0.75 mg SC, interval 0-4 h, V5): −5.2* | DBP: treatment group difference (from placebo) in mean change from single-blind placebo (0.75 mg SC, interval 0-4 h, V5): 1.5 | SBP: treatment group difference (from placebo) in mean change from single-blind placebo (0.75 mg SC, interval 0-4 h, V5): 1.8 | HR-BP Product: treatment group difference (from placebo) in mean change from single-blind placebo (0.75 mg SC, interval 0-4 h, V5): −492.8* | Pulse: treatment group difference (from placebo) in mean change from single-blind placebo (0.75 mg SC, interval 0-4 h, V7): −4.8* | DBP: treatment group difference (from placebo) in mean change from single-blind placebo (0.75 mg SC, interval 0-4 h, V7): 0.6 | SBP: treatment group difference (from placebo) in mean change from single-blind placebo (0.75 mg SC, interval 0-4 h, V7): 1.1 | HR-BP Product: treatment group difference (from placebo) in mean change from single-blind placebo (0.75 mg SC, interval 0-4 h, V7): −491.9* | Pulse: treatment group difference (from placebo) in mean change from single-blind placebo [1]: −2.2* | DBP: treatment group difference (from placebo) in mean change from single-blind placebo [1]: 1.1* | SBP: treatment group difference (from placebo) in mean change from single-blind placebo [1]: 1.1 | HR-BP Product: treatment group difference (from placebo) in mean change from single-blind placebo [1]: −187.7 | Pulse: treatment group difference (from placebo) in mean change from single-blind placebo [2]: −1.6 | DBP: treatment group difference (from placebo) in mean change from single-blind placebo [2]: 1.3* | SBP: treatment group difference (from placebo) in mean change from single-blind placebo [2]: 1.5 | HR-BP Product: treatment group difference (from placebo) in mean change from single-blind placebo [2]: −82.3 | Pulse: treatment group difference (from placebo) in mean change from single-blind placebo (0.75 mg SC, interval 4-8 h, V5): −6.2* | DBP: treatment group difference (from placebo) in mean change from single-blind placebo (0.75 mg SC, interval 4-8 h, V5): 1.3 | SBP: treatment group difference (from placebo) in mean change from single-blind placebo (0.75 mg SC, interval 4-8 h, V5): 0.9 | HR-BP Product: treatment group difference (from placebo) in mean change from single-blind placebo (0.75 mg SC, interval 4-8 h, V5): −676.5* | Pulse: treatment group difference (from placebo) in mean change from single-blind placebo (0.75 mg SC, interval 4-8 h, V7): −5.5* | DBP: treatment group difference (from placebo) in mean change from single-blind placebo (0.75 mg SC, interval 4-8 h, V7): 1.7 | SBP: treatment group difference (from placebo) in mean change from single-blind placebo (0.75 mg SC, interval 4-8 h, V7): 1.6 | HR-BP Product: treatment group difference (from placebo) in mean change from single-blind placebo (0.75 mg SC, interval 4-8 h, V7): −503.3* | Pulse: treatment group difference (from placebo) in mean change from single-blind placebo [3]: −0.4 | DBP: treatment group difference (from placebo) in mean change from single-blind placebo [3]: 1.0 | SBP: treatment group difference (from placebo) in mean change from single-blind placebo [3]: 0.9 | HR-BP Product: treatment group difference (from placebo) in mean change from single-blind placebo [3]: 5.2 | Pulse: treatment group difference (from placebo) in mean change from single-blind placebo [4]: 0.1 | DBP: treatment group difference (from placebo) in mean change from single-blind placebo [4]: 1.3* | SBP: treatment group difference (from placebo) in mean change from single-blind placebo [4]: 1.6 | HR-BP Product: treatment group difference (from placebo) in mean change from single-blind placebo [4]: 114.9 | Systolic blood pressure shifts: ΔSBP >10 mmHg, Duration >30 minutes (1.25 mg SC): 2 | Systolic blood pressure shifts: ΔSBP >15 mmHg, Duration >30 minutes (1.25 mg SC): 0 | Pulse: treatment group difference (from placebo) in mean change from single-blind placebo (1.25 mg SC, interval 0-4 h, V5): −5.2* | DBP: treatment group difference (from placebo) in mean change from single-blind placebo (1.25 mg SC, interval 0-4 h, V5): 3.0* | SBP: treatment group difference (from placebo) in mean change from single-blind placebo (1.25 mg SC, interval 0-4 h, V5): 2.4* | HR-BP Product: treatment group difference (from placebo) in mean change from single-blind placebo (1.25 mg SC, interval 0-4 h, V5): −436.4* | Pulse: treatment group difference (from placebo) in mean change from single-blind placebo (1.25 mg SC, interval 0-4 h, V7): −6.1* | DBP: treatment group difference (from placebo) in mean change from single-blind placebo (1.25 mg SC, interval 0-4 h, V7): 2.2* | SBP: treatment group difference (from placebo) in mean change from single-blind placebo (1.25 mg SC, interval 0-4 h, V7): 2.1* | HR-BP Product: treatment group difference (from placebo) in mean change from single-blind placebo (1.25 mg SC, interval 0-4 h, V7): −583.3* | Pulse: treatment group difference (from placebo) in mean change from single-blind placebo [5]: −2.9* | DBP: treatment group difference (from placebo) in mean change from single-blind placebo [5]: 1.9* | SBP: treatment group difference (from placebo) in mean change from single-blind placebo [5]: 1.1 | HR-BP Product: treatment group difference (from placebo) in mean change from single-blind placebo [5]: −265.9 | Pulse: treatment group difference (from placebo) in mean change from single-blind placebo [6]: −2.6* | DBP: treatment group difference (from placebo) in mean change from single-blind placebo [6]: 1.7* | SBP: treatment group difference (from placebo) in mean change from single-blind placebo [6]: 1.6* | HR-BP Product: treatment group difference (from placebo) in mean change from single-blind placebo [6]: −206.5
